Assay results published in the NIST ThermoML archive (doi:10.1016/j.jct.2007.11.011).
± gives the expanded uncertainty stated by the source.

Settings: Liquid

Compound: CCOS(=O)(=O)[O-].CCn1cc[n+](C)c1 [1-ethyl-3-methylimidazolium ethyl sulfate]
- mass density (283.15 K, 100 kPa): 1246.94 ± 0.83 kg/m3
- mass density (283.15 K, 2500 kPa): 1247.9 ± 0.94 kg/m3
- mass density (283.15 K, 5000 kPa): 1248.89 ± 1.1 kg/m3
- mass density (283.15 K, 10000 kPa): 1250.85 ± 1.4 kg/m3
- mass density (283.15 K, 15000 kPa): 1252.79 ± 1.7 kg/m3
- mass density (283.15 K, 20000 kPa): 1254.73 ± 2 kg/m3
- mass density (283.15 K, 25000 kPa): 1256.61 ± 2.3 kg/m3
- mass density (283.15 K, 30000 kPa): 1258.47 ± 2.6 kg/m3
- mass density (283.15 K, 35000 kPa): 1260.31 ± 2.9 kg/m3
- mass density (293.15 K, 100 kPa): 1239.88 ± 0.81 kg/m3
- mass density (293.15 K, 2500 kPa): 1240.89 ± 0.92 kg/m3
- mass density (293.15 K, 5000 kPa): 1241.91 ± 1.1 kg/m3
- mass density (293.15 K, 10000 kPa): 1243.9 ± 1.4 kg/m3
- mass density (293.15 K, 15000 kPa): 1245.88 ± 1.6 kg/m3
- mass density (293.15 K, 20000 kPa): 1247.83 ± 1.9 kg/m3
- mass density (293.15 K, 25000 kPa): 1249.76 ± 2.2 kg/m3
- mass density (293.15 K, 30000 kPa): 1251.66 ± 2.5 kg/m3
- mass density (293.15 K, 35000 kPa): 1253.57 ± 2.9 kg/m3
- mass density (298.15 K, 100 kPa): 1236.35 ± 0.81 kg/m3
- mass density (298.15 K, 2500 kPa): 1237.35 ± 0.92 kg/m3
- mass density (298.15 K, 5000 kPa): 1238.4 ± 1 kg/m3
- mass density (298.15 K, 10000 kPa): 1240.44 ± 1.3 kg/m3
- mass density (298.15 K, 15000 kPa): 1242.46 ± 1.6 kg/m3
- mass density (298.15 K, 20000 kPa): 1244.44 ± 1.9 kg/m3
- mass density (298.15 K, 25000 kPa): 1246.41 ± 2.2 kg/m3
- mass density (298.15 K, 30000 kPa): 1248.35 ± 2.5 kg/m3
- mass density (298.15 K, 35000 kPa): 1250.23 ± 2.8 kg/m3
- mass density (303.15 K, 100 kPa): 1232.72 ± 0.8 kg/m3
- mass density (303.15 K, 2500 kPa): 1233.78 ± 0.91 kg/m3
- mass density (303.15 K, 5000 kPa): 1234.83 ± 1 kg/m3
- mass density (303.15 K, 10000 kPa): 1237 ± 1.3 kg/m3
- mass density (303.15 K, 15000 kPa): 1239.02 ± 1.6 kg/m3
- mass density (303.15 K, 20000 kPa): 1241.03 ± 1.9 kg/m3
- mass density (303.15 K, 25000 kPa): 1243.02 ± 2.2 kg/m3
- mass density (303.15 K, 30000 kPa): 1244.98 ± 2.5 kg/m3
- mass density (303.15 K, 35000 kPa): 1246.84 ± 2.8 kg/m3
- mass density (313.15 K, 100 kPa): 1226.06 ± 0.79 kg/m3
- mass density (313.15 K, 2500 kPa): 1227.11 ± 0.89 kg/m3
- mass density (313.15 K, 5000 kPa): 1228.18 ± 1 kg/m3
- mass density (313.15 K, 10000 kPa): 1230.3 ± 1.3 kg/m3
- mass density (313.15 K, 15000 kPa): 1232.38 ± 1.6 kg/m3
- mass density (313.15 K, 20000 kPa): 1234.45 ± 1.9 kg/m3
- mass density (313.15 K, 25000 kPa): 1236.48 ± 2.1 kg/m3
- mass density (313.15 K, 30000 kPa): 1238.47 ± 2.4 kg/m3
- mass density (313.15 K, 35000 kPa): 1240.45 ± 2.7 kg/m3
- mass density (323.15 K, 100 kPa): 1219.19 ± 0.77 kg/m3
- mass density (323.15 K, 2500 kPa): 1220.23 ± 0.87 kg/m3
- mass density (323.15 K, 5000 kPa): 1221.36 ± 0.98 kg/m3
- mass density (323.15 K, 10000 kPa): 1223.53 ± 1.2 kg/m3
- mass density (323.15 K, 15000 kPa): 1225.69 ± 1.5 kg/m3
- mass density (323.15 K, 20000 kPa): 1227.8 ± 1.8 kg/m3
- mass density (323.15 K, 25000 kPa): 1229.93 ± 2.1 kg/m3
- mass density (323.15 K, 30000 kPa): 1231.96 ± 2.4 kg/m3
- mass density (323.15 K, 35000 kPa): 1233.91 ± 2.7 kg/m3
- mass density (333.15 K, 100 kPa): 1212.42 ± 0.76 kg/m3
- mass density (333.15 K, 2500 kPa): 1213.53 ± 0.86 kg/m3
- mass density (333.15 K, 5000 kPa): 1214.66 ± 0.96 kg/m3
- mass density (333.15 K, 10000 kPa): 1216.87 ± 1.2 kg/m3
- mass density (333.15 K, 15000 kPa): 1219.08 ± 1.5 kg/m3
- mass density (333.15 K, 20000 kPa): 1221.24 ± 1.8 kg/m3
- mass density (333.15 K, 25000 kPa): 1223.33 ± 2 kg/m3
- mass density (333.15 K, 30000 kPa): 1225.42 ± 2.3 kg/m3
- mass density (333.15 K, 35000 kPa): 1227.46 ± 2.6 kg/m3
